# Results: ChEMBL document CHEMBL1201862, “PubChem BioAssay data set” (2004)
# Active and inactive are the calls of the source.
# Experiments:
# [1] = target: Photoreceptor-specific nuclear receptor (Homo sapiens, UniProt Q9Y5X4); format: functional;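 note: potency for compounds that break the NR2E3 corepressor complex and count as activators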
# [2] = target: Peroxisome proliferator-activated receptor gamma/Nuclear receptor corepressor 2 (Homo sapiens, UniProt P37231+Q9Y618); format: functional
# [3] = NIH-3T3 fibroblast cytotoxicity, dose response, cytotoxicity control, cell-based, fluorescence, Alamar Blue, secondary assay (AID 2327); format: functional;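 note: NIH-3T3 mouse fibroblasts cultured with fluconazole at 8 µg/mL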
# [4] = luciferase reporter signal reduction – luminescence, H4-C neuroglioblastoma cells, dose response (AID 2458); format: functional, cell-based;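 note: H4 neuroglioblastoma cells stably carrying a luciferase reporter gene fusion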
# HEK293 [5] = experiment: NOD1 signaling inhibitors, primary screen, cell-based, luminescence, uHTS (AID 1578); format: functional; details: Homo sapiens
# [6] = system: Streptococcus sp. 'group A'; experiment: growth inhibition of control SK(-) GAS strain, dose response, counter-screen for streptokinase expression inhibitor project, luminescence, kanamycin, BacTiterGlo, confirmation (AID 1900); format: functional, organism-based
# HEK293 [7] = experiment: cells; format: functional, cell-based; details: Homo sapiens
# cells = format: functional, cell-based
# [8] = Luminescence Cell-Based Dose Response HTS to Identify Inhibitors of 5'UTR Stem-Loop Driven Prion Protein mRNA Translation in H4 Neuroglioblastoma Cells. [Related pubchem assays: 1827 (Project Summary), 1813 (Primary HTS)]; format: functional
# [9] = inhibitors of SNCA 5'UTR-driven reporter translation, confirmation, H4 neuroglioma cells, luminescence (AID 1988); format: functional, cell-based
# [10] = C. albicans growth with fluconazole, confirmation, fluorescence, retest (AID 2467); format: functional, cell-based
# HEK293 [11] = experiment: cells; format: functional, cell-based; details: Homo sapiens; remark: listed apart in the source
# [12] = target: Nucleotide-binding oligomerization domain-containing protein 2 (Homo sapiens, UniProt Q9HC29); experiment: NOD2 signaling inhibitors, cell-based, luminescence, uHTS, HEK293 (AID 1566); format: functional
# HEK293 [13] = experiment: NOD2 signaling inhibitors in MDP-stimulated cells, cell-based, uHTS, luminescence (AID 2001); format: functional; details: Homo sapiens
# [14] = inhibitors of intracellular T. cruzi replication, confirmation, NIH3T3 host cells, beta-gal luminescence (AID 2044); format: functional, cell-based;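 note: intracellular parasites grown in NIH/3T3 mouse fibroblasts as host cells; luminescent beta-galactosidase reporter signal from transgenic T. cruzi replicating inside host cells; inhibitors lower the luminescence signal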
# HEK293 [15] = experiment: cells; format: functional, cell-based; details: Homo sapiens; remark: listed apart in the source
# [16] = target: T1, Serine/threonine-protein phosphatase (Candida dubliniensis (strain CD36 / CBS 7987 / NCPF 3949 / NRRLY-17841) (Yeast), UniProt B9W6M3); experiment: calcineurin pathway inhibitors in yeast reporter, dose response, S. cerevisiae, CDRE-lacZ, luminescence, secondary (AID 2388); format: functional, cell-based;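 note: yeast reporter cells carrying a calcineurin-responsive lacZ construct stimulated with calcium chloride; luminescent beta-galactosidase reporter signal in whole cells rather than isolated phosphatase activity; potency for inhibition where a drop in reporter signal means calcineurin blockade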
# T1 sequence (B9W6M3 whole entry): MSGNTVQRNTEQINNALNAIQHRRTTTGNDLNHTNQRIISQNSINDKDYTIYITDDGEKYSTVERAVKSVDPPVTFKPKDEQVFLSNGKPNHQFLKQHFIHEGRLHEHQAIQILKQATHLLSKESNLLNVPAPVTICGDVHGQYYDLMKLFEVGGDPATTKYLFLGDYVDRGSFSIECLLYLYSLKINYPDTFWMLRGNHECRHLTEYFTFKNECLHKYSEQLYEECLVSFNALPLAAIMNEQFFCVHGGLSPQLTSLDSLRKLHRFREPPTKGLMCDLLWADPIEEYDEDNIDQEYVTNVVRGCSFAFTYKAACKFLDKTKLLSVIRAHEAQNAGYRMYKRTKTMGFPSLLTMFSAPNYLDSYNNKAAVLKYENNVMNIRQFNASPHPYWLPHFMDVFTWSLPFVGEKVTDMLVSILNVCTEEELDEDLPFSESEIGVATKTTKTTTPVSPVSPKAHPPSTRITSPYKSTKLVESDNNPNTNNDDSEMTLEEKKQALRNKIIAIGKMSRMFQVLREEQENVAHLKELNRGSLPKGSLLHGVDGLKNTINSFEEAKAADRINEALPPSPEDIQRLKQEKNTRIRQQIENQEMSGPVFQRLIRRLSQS
# [17] = cytotoxicity toward NIH3T3 fibroblasts, dose response, counter-screen, cell-based, ATP luminescence, mouse fibroblasts (AID 2010); format: functional;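 note: cells exposed to compound for about 90 hours before reading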
# Streptococcus = experiment: Group A Streptococcus viability loss, dose response, counter-screen for streptokinase expression inhibitor project, luminescence, BacTiterGlo (AID 1915); format: functional, organism-based;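 note: potency for reduction of bacterial viability or growth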
# [18] = inhibitors of SNCA 5'UTR-driven translation, confirmation, luminescence, H4 neuroglioblastoma cells, dose confirmation (AID 2454); format: functional, cell-based;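 note: H4 neuroglioblastoma cells carrying an alpha-synuclein 5'UTR luciferase reporter; potency for inhibition of the luciferase signal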
# INS1 = experiment: beta cell apoptosis inhibitors, cytokine rescue, dose response, luminescence, retest (AID 449756); format: functional, cell-based; details: Rattus norvegicus;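 note: cell death triggered by IL-1 beta plus TNF-alpha plus IFN-gamma mixture; protective hits raise ATP signal compared with cytokine alone wells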
# [19] = target: ATP-dependent molecular chaperone HSP82 (Candida albicans (strain WO-1) (Yeast), UniProt C4YTQ8); experiment: loss of DOC-induced GRE-beta-galactosidase reporter signal, dose response, Hsp90 inhibitor project, S. cerevisiae, luminescence (AID 2400); format: functional, cell-based;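 note: beta-galactosidase luminescence from glucocorticoid response element reporter as proxy for Hsp90 function; inhibitor potency where signal loss means Hsp90 inhibition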
# Vero = experiment: Vero E6 cell cytotoxicity, SAR follow-up, cytotoxicity control for West Nile virus antiviral project, synthesized analogs (AID 2244); format: functional; details: Chlorocebus sabaeus
# [20] = target: Mothers against decapentaplegic homolog 3 (Homo sapiens, UniProt P84022); experiment: Smad3 binding inhibitors, lysate ELISA, dose response, cell lysate, secondary confirmation, chemiluminescent ELISA, HEK293 lysate (AID 1058); format: functional
# [21] = target: Voltage-gated N-type calcium channel alpha-1B subunit/Amyloid beta A4 precursor protein-binding family A member 1 (Homo sapiens, UniProt Q00975+Q02410); experiment: disruptors of Mint-PDZ/N-type channel peptide interaction – biochemical, HTRF, set 2, SAR follow-up (AID 434980); format: functional
# [22] = target: Melanin-concentrating hormone receptor 1 (Homo sapiens, UniProt Q99705); experiment: Late-stage fluorescence-based counterscreen for antagonists of the G-protein coupled receptor 7 (GPR7): cell-based dose response assay to identify antagonists of the melanin-concentrating hormone receptor 1 (MCHR1). [Related pubchem assays (depositor defined):AID1861, AID1880, AID1952, AID2148, AID2251, AID2257, AID485339]; format: functional;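 note: stimulated with 30 nM MCH peptide agonist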
# [23] = target: C-C chemokine receptor type 6 (Homo sapiens, UniProt P51684); experiment: CCR6 receptor antagonists, dose response, cell-based, luminescent beta-arrestin readout (AID 504728); format: functional
# Beta-galactosidase = Beta-galactosidase (Escherichia coli, UniProt Q8VNN2); experiment: beta-galactosidase enzyme inhibitors and activators, dose response, artefact control for CCR6 antagonist project, biochemical, E. coli enzyme, set 3 (AID 504712); format: functional
# [24] = target: Serine/threonine-protein phosphatase PP1-alpha catalytic subunit (Homo sapiens, UniProt P62136); experiment: PP1 phosphatase inhibitors, dose response, biochemical, fluorescence (AID 2403);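 note: phosphatase turnover of OMFP into fluorescent 3-O-methylfluorescein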
# [25] = target: Serine/threonine-protein phosphatase (Homo sapiens, UniProt Q9BPW0); experiment: Counterscreen for inhibitors of PP1: fluorescence-based biochemical high throughput dose response assay to identify inhibitors of Protein Phosphatase 5 (PP5). [Related pubchem assays: 2034 (Summary (PP5 inhibitors)), 1987 (PP5 inhibitors in singlate), 2235 (PP1 inhibitors in singlate)]
# Cytochrome P450 3A4 [26] = target: T2, Cytochrome P450 3A4 (Homo sapiens, UniProt P08684); details: Potency;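 note: confirmatory qHTS run detecting inhibitors and substrates of CYP3A4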
# Cytochrome P450 3A4 [27] = target: T2, Cytochrome P450 3A4; details: read-out: Potency
# T2 sequence (P08684 whole entry): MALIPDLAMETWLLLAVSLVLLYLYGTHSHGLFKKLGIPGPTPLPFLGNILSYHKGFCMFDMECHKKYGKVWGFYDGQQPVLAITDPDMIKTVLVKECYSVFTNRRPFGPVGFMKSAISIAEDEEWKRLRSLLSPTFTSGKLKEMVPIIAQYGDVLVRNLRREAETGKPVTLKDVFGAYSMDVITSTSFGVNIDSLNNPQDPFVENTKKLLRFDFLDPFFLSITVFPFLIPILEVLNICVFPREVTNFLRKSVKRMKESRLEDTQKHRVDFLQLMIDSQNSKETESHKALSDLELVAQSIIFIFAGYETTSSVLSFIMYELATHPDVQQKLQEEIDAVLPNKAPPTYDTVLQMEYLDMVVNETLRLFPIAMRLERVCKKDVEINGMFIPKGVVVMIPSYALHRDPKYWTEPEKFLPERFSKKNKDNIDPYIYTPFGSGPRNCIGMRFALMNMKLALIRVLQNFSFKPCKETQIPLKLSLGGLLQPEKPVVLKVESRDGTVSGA
# Photoreceptor-specific nuclear receptor, sequence (Q9Y5X4 whole entry): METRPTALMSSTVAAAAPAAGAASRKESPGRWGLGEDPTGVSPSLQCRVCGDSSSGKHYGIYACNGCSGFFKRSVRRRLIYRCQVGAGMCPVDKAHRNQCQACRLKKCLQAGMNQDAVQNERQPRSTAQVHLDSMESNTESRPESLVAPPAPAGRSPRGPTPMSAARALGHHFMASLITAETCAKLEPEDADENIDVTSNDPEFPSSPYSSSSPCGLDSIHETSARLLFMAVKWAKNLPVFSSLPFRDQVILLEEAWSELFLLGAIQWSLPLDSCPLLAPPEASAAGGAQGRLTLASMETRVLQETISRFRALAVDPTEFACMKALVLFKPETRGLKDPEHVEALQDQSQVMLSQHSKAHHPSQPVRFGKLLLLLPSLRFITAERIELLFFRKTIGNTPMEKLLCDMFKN
# Melanin-concentrating hormone receptor 1, sequence (Q99705 whole entry): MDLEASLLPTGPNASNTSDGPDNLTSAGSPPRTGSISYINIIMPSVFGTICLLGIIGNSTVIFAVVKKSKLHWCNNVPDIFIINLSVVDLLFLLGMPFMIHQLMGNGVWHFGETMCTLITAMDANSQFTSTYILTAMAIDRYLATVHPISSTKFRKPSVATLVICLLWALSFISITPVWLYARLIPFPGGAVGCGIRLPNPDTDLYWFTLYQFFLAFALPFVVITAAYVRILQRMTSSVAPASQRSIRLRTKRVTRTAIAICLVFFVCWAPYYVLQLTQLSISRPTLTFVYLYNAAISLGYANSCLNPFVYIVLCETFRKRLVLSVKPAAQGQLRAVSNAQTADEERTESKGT
# Voltage-gated N-type calcium channel alpha-1B subunit/Amyloid beta A4 precursor protein-binding family A member 1, sequence (Q00975 whole entry): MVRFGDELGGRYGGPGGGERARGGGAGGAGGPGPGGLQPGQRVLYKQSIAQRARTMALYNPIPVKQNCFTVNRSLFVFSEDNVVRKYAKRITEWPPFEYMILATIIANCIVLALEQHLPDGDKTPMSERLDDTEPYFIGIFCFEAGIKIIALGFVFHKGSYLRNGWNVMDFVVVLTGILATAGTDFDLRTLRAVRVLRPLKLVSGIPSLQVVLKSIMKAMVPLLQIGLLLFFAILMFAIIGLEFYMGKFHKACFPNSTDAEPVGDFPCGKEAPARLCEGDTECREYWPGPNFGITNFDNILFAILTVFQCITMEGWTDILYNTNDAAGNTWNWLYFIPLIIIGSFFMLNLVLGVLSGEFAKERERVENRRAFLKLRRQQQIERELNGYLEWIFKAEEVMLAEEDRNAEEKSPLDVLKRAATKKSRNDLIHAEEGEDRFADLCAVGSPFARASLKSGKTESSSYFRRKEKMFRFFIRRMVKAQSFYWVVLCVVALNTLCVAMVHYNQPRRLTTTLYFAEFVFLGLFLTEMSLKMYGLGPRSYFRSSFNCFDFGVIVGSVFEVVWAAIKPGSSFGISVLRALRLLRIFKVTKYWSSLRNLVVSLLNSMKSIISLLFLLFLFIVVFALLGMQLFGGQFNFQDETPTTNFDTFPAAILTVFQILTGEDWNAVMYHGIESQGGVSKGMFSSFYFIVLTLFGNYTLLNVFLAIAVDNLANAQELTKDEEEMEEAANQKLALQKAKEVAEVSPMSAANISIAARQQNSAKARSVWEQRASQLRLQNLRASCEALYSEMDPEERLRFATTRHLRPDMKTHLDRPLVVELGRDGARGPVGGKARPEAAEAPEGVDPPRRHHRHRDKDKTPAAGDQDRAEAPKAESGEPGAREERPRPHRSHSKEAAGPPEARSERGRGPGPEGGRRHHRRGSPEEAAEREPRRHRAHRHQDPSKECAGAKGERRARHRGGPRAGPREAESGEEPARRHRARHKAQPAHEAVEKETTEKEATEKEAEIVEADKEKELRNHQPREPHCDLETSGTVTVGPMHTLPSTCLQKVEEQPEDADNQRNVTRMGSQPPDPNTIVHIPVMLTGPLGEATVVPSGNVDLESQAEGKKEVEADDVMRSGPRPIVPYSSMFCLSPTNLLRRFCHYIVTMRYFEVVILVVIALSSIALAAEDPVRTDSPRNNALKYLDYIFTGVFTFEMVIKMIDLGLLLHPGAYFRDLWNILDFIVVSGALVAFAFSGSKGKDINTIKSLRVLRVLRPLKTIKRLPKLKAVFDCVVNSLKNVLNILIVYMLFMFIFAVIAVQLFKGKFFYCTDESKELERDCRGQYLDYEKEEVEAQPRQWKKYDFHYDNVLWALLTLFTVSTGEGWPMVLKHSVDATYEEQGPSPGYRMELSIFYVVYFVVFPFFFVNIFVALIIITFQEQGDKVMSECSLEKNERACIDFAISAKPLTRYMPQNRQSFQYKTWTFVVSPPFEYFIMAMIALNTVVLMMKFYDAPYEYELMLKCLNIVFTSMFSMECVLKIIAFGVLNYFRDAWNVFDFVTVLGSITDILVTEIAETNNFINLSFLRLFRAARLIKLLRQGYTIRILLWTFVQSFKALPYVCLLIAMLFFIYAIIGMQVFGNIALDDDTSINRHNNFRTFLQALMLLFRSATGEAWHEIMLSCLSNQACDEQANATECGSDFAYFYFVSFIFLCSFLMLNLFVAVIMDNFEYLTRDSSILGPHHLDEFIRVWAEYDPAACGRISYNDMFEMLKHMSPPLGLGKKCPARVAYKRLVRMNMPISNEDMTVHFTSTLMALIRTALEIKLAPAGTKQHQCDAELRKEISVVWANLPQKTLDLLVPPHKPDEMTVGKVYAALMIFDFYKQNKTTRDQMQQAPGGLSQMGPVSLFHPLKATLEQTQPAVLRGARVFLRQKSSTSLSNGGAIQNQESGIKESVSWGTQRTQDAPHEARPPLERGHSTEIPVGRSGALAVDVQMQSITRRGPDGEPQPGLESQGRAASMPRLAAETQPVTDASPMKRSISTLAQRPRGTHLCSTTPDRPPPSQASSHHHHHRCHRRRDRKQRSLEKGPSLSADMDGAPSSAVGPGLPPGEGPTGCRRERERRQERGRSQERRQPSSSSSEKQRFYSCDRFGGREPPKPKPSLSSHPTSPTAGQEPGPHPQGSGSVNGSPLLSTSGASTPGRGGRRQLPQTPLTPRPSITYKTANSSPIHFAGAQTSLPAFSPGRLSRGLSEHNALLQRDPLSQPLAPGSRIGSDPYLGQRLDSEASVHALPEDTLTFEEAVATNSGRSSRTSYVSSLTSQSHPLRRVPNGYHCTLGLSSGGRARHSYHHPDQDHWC
# Voltage-gated N-type calcium channel alpha-1B subunit/Amyloid beta A4 precursor protein-binding family A member 1, sequence (Q02410 whole entry): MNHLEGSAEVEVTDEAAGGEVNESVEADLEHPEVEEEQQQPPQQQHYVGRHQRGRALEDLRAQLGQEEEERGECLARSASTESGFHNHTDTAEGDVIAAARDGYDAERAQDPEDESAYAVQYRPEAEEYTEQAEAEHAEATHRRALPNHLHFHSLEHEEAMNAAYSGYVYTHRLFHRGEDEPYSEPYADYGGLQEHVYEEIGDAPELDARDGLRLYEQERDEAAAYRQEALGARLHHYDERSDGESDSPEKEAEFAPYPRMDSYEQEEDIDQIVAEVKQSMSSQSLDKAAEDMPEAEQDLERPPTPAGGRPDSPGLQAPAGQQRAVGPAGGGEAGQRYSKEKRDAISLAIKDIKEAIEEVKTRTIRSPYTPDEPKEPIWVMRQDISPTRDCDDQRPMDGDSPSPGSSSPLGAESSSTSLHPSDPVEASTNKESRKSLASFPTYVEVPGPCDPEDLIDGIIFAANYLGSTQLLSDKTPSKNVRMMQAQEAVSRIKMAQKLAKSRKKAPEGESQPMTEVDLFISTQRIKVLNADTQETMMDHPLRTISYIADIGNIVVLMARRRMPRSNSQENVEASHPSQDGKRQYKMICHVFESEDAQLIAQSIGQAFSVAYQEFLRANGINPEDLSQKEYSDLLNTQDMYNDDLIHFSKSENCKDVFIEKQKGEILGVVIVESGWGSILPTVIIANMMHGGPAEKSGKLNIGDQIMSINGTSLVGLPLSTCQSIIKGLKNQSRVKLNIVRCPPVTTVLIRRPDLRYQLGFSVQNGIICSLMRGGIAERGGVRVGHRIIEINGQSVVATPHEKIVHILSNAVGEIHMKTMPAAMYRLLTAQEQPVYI
# C-C chemokine receptor type 6, sequence (P51684 whole entry): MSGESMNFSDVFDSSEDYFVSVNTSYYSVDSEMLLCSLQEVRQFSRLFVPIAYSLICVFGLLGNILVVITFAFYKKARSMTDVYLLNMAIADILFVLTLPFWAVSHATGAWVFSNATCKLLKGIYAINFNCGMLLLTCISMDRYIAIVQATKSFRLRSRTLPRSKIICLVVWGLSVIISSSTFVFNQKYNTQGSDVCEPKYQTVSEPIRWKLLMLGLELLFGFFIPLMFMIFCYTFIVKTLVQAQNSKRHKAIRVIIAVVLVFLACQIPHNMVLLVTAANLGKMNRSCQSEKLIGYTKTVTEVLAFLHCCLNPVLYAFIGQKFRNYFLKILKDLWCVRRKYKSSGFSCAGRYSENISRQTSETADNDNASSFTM
smiles,measurement,setting,value
COc1ccc(-n2c(=S)[nH]c3c(oc4ccccc43)c2=O)cc1,IC50,[1],2.32 µM (active)
same,IC50,[2],4.93 µM (active)
Oc1c(Br)cc(Br)cc1/C=N/Nc1ccc(Cl)nn1,EC50,[3],45.2 µM (active)
same,EC50,[4],0.931 µM (active)
same,EC50,HEK293 [5],> 20 µM (inactive)
same,EC50,[6],0.249 µM (active)
same,IC50,HEK293 [7],> 20 µM (inactive)
same,EC50,cells,0.502 µM (active)
same,EC50,[8],0.287 µM (active)
same,EC50,[9],< 0.1 µM (active)
same,EC50,[10],< 0.03 µM (active)
same,IC50,HEK293 [11],> 20 µM (inactive)
same,EC50,[12],> 20 µM (inactive)
same,IC50,HEK293 [13],> 20 µM (inactive)
same,EC50,[14],0.495 µM (active)
same,IC50,HEK293 [15],> 20 µM (inactive)
same,EC50,[16],> 180 µM (inactive)
same,EC50,[17],> 30 µM (not active)
same,EC50,Streptococcus,0.899 µM (active)
same,EC50,[18],> 12 µM (inconclusive)
same,AC50,INS1,0.22 µM (active)
same,EC50,[19],24.3 µM (active)
O=C(Nc1nc(-c2ccc(Cl)cc2)cs1)c1ccccc1F,CC50,Vero,> 40 µM (active)
COc1ccc(C(c2cc3c(cc2O)OCO3)N2CCCCC2)cc1 (stereo unspecified),IC50,[20],< 2.5 µM (not active)
O=C(NCCc1ccc(Cl)cc1)c1cc(-c2ccco2)nc2ccccc12,IC50,[21],31.1 µM (active)
COc1ccc(Oc2c(Cl)cnn(-c3cccc4ccccc34)c2=O)cc1,IC50,[22],8.4 µM (active)
C(=C\c1sc(Nc2ccccc2)n[n+]1-c1ccccc1)/c1ccccc1,IC50,[23],48.8 µM (inactive)
same,IC50,Beta-galactosidase,> 66.6 µM (inactive)
CCOC(=O)c1sc(N2C(=O)C(O)=C(C(=O)c3ccco3)C2c2cccc([N+](=O)[O-])c2)nc1C (stereo unspecified),EC50,HEK293 [5],> 20 µM (inactive)
same,IC50,HEK293 [7],> 20 µM (inactive)
same,IC50,[24],11.8 µM (not active)
same,IC50,HEK293 [11],> 20 µM (inactive)
same,IC50,HEK293 [13],> 20 µM (inactive)
same,IC50,[25],> 67 µM (not active)
COC(=O)C1=C(C)N(Cc2ccccc2)C2=C(C(C)=O)C[C@@](O)(C(=O)OC)C(=O)N2C1c1ccccc1 (stereo partly specified),AC50,Cytochrome P450 3A4 [26],3.16 µM (inconclusive)
same,AC50,Cytochrome P450 3A4 [27],3.16 µM (inconclusive)
